Consider six compounds from patent publication US20100278730A1, “Non-Invasive Molecular Imaging of Cellular Histone Deacetylase Substrate Using Magnetic Resonance Spectroscopy (MRS) or Positron Emission Tomography (PET)” (priority 2007, published 2010).

In one data set the test system is HDACs 1-11. The data set is described as follows: HDAC fluorimetric assay. The format is biochemical. Particulars: for histone deacetylase activity in the presence of the substrate: FIG. 21, BPS#3 as control. Here is the method:
Material: Assay buffer, Assay developer, HDAC substrate
(§1) Source: BPS Bioscience, Inc.
Add reaction mixtures to low binding black plate. These include: HDAC assay buffer, Bovine serum albumin solution, HDAC substrate, and HDAC enzymes.
Incubate at 37° C. for 30 minutes.
(§2) Stop the reaction by addition of HDAC Assay developer (2×) and incubate plate at room temperature for 15 minutes.
(§3) Read sample in a microtiter-plate reading fluorimeter at excitation wavelength in the range of 350-380 nm and detect in emission range of 440-460 nm.

For the next data set, the system named is sirtuins 1-5. The data set is described as follows: Sirtuin fluorimetric assay. The format is biochemical. The procedure: Sirtuin Fluorimetric Assay
Material: substrate available from manufacturer
as §1
Add reaction mixtures to low binding black plate. These include: Sirtuin, HDAC assay buffer, Bovine serum albumin solution, NAD+ solution and Sirtuin substrate.
Incubate at 37° C. for 30 minutes
as §2, §3

The test system of the next data set is MB435 tumor xenografts. The data set is described as follows: PET of [18F]-FAHA in MB435 tumor xenograft-bearing nude rats (second Example 4). The format is in vivo, rat. The procedure:
Methods: [^18F]-FAHA was synthesized with high specific activity according to a method developed at M. D. Anderson Cancer Center. Human breast cancer cells, cell line MB435, grown as described in Example 3, were used to grow tumor xenografts in nude rats. Ten million cancer cells were injected subcutaneously in the neck area of six nude rats. When tumors were 1 cm in diameter, animals were anesthetized, injected with [^18F]-FAHA (37 MBq) and PET imaging was performed (dynamic) up to 60 min post-injection. Two days after the initial imaging, another PET imaging with [^18F]-FAHA was performed using a […] (SAHA). The animals were given SAHA (50 mg/kg) intraperitoneally 1 hour prior to injection of the radiotracer.

The test system of data set [1] is HDAC activity in rat brain. The data set is described as follows: PET imaging of HDAC activity in rat brain using [18F]-FAHA (Example 6). The data set is classed as in vivo. The procedure: Methods: [^18F]-FAHA was synthesized according to the methods developed in our laboratory in high specific activity. Imaging studies with [^18F]-FAHA were conducted in five rats using a PET scanner under isoflurane inhalation anesthesia. The animals were injected intravenously with 37 MBq of [^18F]-FAHA and dynamic scanning PET (0-60 min) was performed. During the imaging session, the rats were anesthetized with 1-1.5 vol % isoflurane/oxygen inhalation and continuously heated with a heating lamp. Two days after the initial study, another PET imaging was performed with [^18F]-FAHA using an […] (SAHA). Each animal was given SAHA (50 mg/kg), intraperitoneally 1 hour prior to injection of the [^18F]-FAHA.
In Table 6, “baseline” refers to brain uptake of FAHA without blocking by SAHA.

The subject of data set [2] is MDA-MB435 human breast carcinoma cells. The data set is described as follows: In vitro uptake study of [18F]-FAHA in human breast carcinoma cell line. The data set is classed as cell-based. The procedure: MDA-MB435 human breast carcinoma cells were grown into flasks with D-MEM/F-12 medium supplemented with 10% FBS and antibiotics at 37° C. in humidified atmosphere with 5% CO2. Cells were kept in the log phase proliferative activity. 5×10^6 of cells in 15 mL of medium were distributed into each tissue culture dish and were incubated at least for 24 hours.
Next day, culture medium was replaced to fresh medium again and was incubated for 3 hours. Then […] of [^18F]-FAHA in […] of saline was added to each dish followed by incubation for 5, 10, 15, 30, 60, and 120 min. At each time point, cells were scraped and were centrifuged at 3,000 rpm for 1 min. After centrifugation, […] of supernatant medium and cells were weighed and their radioactivity measured using a gamma counter. Then the ratio of radioactivity between 1 gram of cells and 1 gram of medium was calculated.
For an inhibition study, cells were incubated in medium with […] of SAHA from 1 hour before adding [^18F]-FAHA.

Data set [3] relates to MB435 human breast carcinoma tumor. The data set is described as follows: PET of [18F]-FAHA in MB435 carcinoma-bearing nu/nu rats, with Gjedde-Patlak analysis (Example 5). The format is in vivo, rat. Here is the method: MB435 human breast carcinoma cells were grown as described in Example 3, above. About 10×10^6 MB435 cells were injected subcutaneously in female nu/nu rat. When tumor size was 15 mm in diameter, PET imaging studies with [^18F]-FAHA were conducted in five rats using microPET R4 (Concorde). The animals were injected intravenously with […] (1mCi) of [^18F]-FAHA and dynamic scanning (0-60 min) was performed. During the imaging session the rats were anesthetized with 2.0 vol % isoflurane/oxygen inhalation and continuously heated with a heating lamp.
Two days after the initial study, another [^18F]-FAHA PET imaging with an […] (SAHA) was performed. The animals were given SAHA (100 mg/kg) intraperitoneally 1 hour prior to injection of the [^18F]-FAHA.
Both a Gjedde-Patlak plot and a Logan plot were taken. […] The linearity of the plot was checked and a plasma/reference region used as an input. […]

[4] abbreviates: 30 min post-injection, with SAHA 50 mg/kg i.p. 1 hour prior.
The mark [5] stands for this setting: 30 min post-injection, without SAHA.
[6] abbreviates: 60 min post-injection, with SAHA 50 mg/kg i.p. 1 hour prior.
Setting [7] is: 60 min post-injection, without SAHA.
[8] abbreviates: during 60 min post-injection, without SAHA.
Where [9] appears, read: 5 min post-injection, without SAHA.

Each structure is given as a SMILES string.

Take `O=C(CCCCCNC(=O)C(F)(F)F)Nc1ccccc1` [3FAHA, 6-(trifluoroacetamido)-1-hexanoicanilide]: the “qualitative rank of the specificity of various HDACs for the substrate” value with HDACs 1-11 is “HDAC-9>HDAC-7>HDAC-5>HDAC-8>HDAC-4>HDAC-11”.
The same measure, in the same setting: the entry for `O=C(CF)NCCCCCC(=O)Nc1ccccc1` [FAHA, 6-(fluoroacetamido)-1-hexanoicanilide] is “HDAC-9>HDAC-5>HDAC-8>HDAC-4>HDAC-6>HDAC-1”.
As to `CC(C)CC(=O)NCCCCCC(=O)Nc1ccccc1` [Iso-PAHA, 6-(isopropylacetamido)-1-hexanoicanilide], in the data set with HDACs 1-11, the “histone deacetylase activity in the presence of the substrate” value was “inhibited the activity of all HDACs”. Further, the “qualitative rank of the specificity of various sirtuins (and HDAC-3) for the substrate” value in the data set on sirtuins 1-5 is “Sirt-2>Sirt-5>Sirt-4>Sirt-3>Sirt-1”.
Taken in the same sequence, the figures for `CCCC(=O)NCCCCCC(=O)Nc1ccccc1` [PAHA, 6-(ethylacetamido)-1-hexanoicanilide] were “inhibited the activity of all HDACs” and “Sirt-2>Sirt-5>Sirt-4>Sirt-3>Sirt-1 >>HDAC-3”.
The corresponding values for `O=C(Cc1ccccc1)NCCCCCC(=O)Nc1ccccc1` [PhAHA, 6-(phenylacetamido)-1-hexanoicanilide] are “inhibited the activity of all HDACs” and “Sirt-2 >>Sirt-3>Sirt-4>Sirt-5>Sirt-1”.
Turning to `O=C(C[18F])NCCCCCC(=O)Nc1ccccc1` [[^18F]-FAHA, 6-([^18F]-fluoroacetamide)-1-hexanoicanilide], the Tumor uptake in the data set on MB435 tumor xenografts (setting [4]) is 0.70 ± 0.04 % ID/g; with MB435 tumor xenografts (setting [5]) it was 0.78 ± 0.13 % ID/g; in the data set on MB435 tumor xenografts (setting [6]) it was 0.71 ± 0.02 % ID/g; in the data set on MB435 tumor xenografts (setting [7]) it was 0.79 ± 0.13 % ID/g. Besides, the “tumor-to-muscle (T/M) ratio” value in the data set on MB435 tumor xenografts (setting [4]) is 1.52 ± 0.13; with MB435 tumor xenografts (setting [5]), 1.80 ± 0.17; with MB435 tumor xenografts (setting [6]), 1.64 ± 0.10; in the data set on MB435 tumor xenografts (setting [7]), 1.95 ± 0.19. Also, the tumor uptake achieved result in the data set on MB435 tumor xenografts (setting [8]) is “approximately 0.8 % injected dose (ID)/g”. Further, in the data set on MB435 tumor xenografts (setting [8]), the “tumor-to muscle ratio reached” value is given as 1.95. For the same compound, the Brain uptake in data set [1] (5 min post-injection, with SAHA 50 mg/kg i.p. 1 hour prior) came out at 0.33 ± 0.05 % ID/g; in data set [1] (setting [9]), 0.44 ± 0.03 % ID/g; in data set [1] (setting [6]) it was 0.23 ± 0.04 % ID/g; in data set [1] (setting [7]), 0.40 ± 0.03 % ID/g. Further, the figures for the “brain-to-muscle (B/M) ratio” value in data set [1] (setting [9]), in data set [1] (setting [6]) and in data set [1] (setting [7]) were 2.56 ± 0.33, 1.03 ± 0.08 and 2.10 ± 0.63, respectively. The “brain-to muscle ratio reached” value in data set [1] (at 5 min post-injection, without SAHA) came out at 1.95. The brain uptake reached in data set [1] (without SAHA) is recorded as 0.44 % injected dose/g. For the same compound, the “ratio of radioactivity between 1 gram of cells and 1 gram of medium” value in data set [2] (Baseline, 5 min) is 1.95 +/− 0.13; in data set [2] (Baseline, 10 min) it was 2.09 +/− 0.15; in data set [2] (Baseline, 15 min), 2.11 +/− 0.12; in data set [2] (Baseline, 30 min), 2.02 +/− 0.11; in data set [2] (Baseline, 60 min), 1.84 +/− 0.14; in data set [2] (Baseline, 120 min) it was 1.38 +/− 0.12. The “ratio of radioactivity between 1 gram of cells and 1 gram of medium” value is 1.16 +/− 0.03 in data set [2] (Inhibition: 10 mM of SAHA from 1 hour before [18F]-FAHA, 5 min); 1.16 +/− 0.01 in data set [2] (Inhibition: 10 mM of SAHA from 1 hour before [18F]-FAHA, 10 min); 1.16 +/− 0.03 in data set [2] (Inhibition: 10 mM of SAHA from 1 hour before [18F]-FAHA, 15 min); 1.16 +/− 0.04 in data set [2] (Inhibition: 10 mM of SAHA from 1 hour before [18F]-FAHA, 30 min); 1.15 +/− 0.01 in data set [2] (Inhibition: 10 mM of SAHA from 1 hour before [18F]-FAHA, 60 min); 1.13 +/− 0.02 in data set [2] (Inhibition: 10 mM of SAHA from 1 hour before [18F]-FAHA, 120 min). The Tumor-to-muscle uptake ratio in data set [3] (Baseline, 5 min) was 2.01 +/− 0.57; in data set [3] (Baseline, 10 min), 2.05 +/− 0.76; in data set [3] (Baseline, 15 min) it was 2.08 +/− 0.83; in data set [3] (Baseline, 30 min), 2.20 +/− 0.95; in data set [3] (Baseline, 60 min), 2.38 +/− 1.11; in data set [3] (Inhibition: SAHA 100 mg/kg i.p. 1 hour prior, 5 min), 1.43 +/− 0.15. For the same compound, the Tumor-to-muscle uptake ratio is 1.50 +/− 0.15 in data set [3] (Inhibition: SAHA 100 mg/kg i.p. 1 hour prior, 10 min); 1.46 +/− 0.16 in data set [3] (Inhibition: SAHA 100 mg/kg i.p. 1 hour prior, 15 min); 1.47 +/− 0.12 in data set [3] (Inhibition: SAHA 100 mg/kg i.p. 1 hour prior, 30 min); 1.47 +/− 0.11 in data set [3] (Inhibition: SAHA 100 mg/kg i.p. 1 hour prior, 60 min).
